This note sets out measurements from patent US12552775B2, “Compounds and uses thereof” (Foghorn Therapeutics Inc., priority 2020, dated 2026).

For test [1], the target named is T1, HiBit-BRM fusion protein (Homo sapiens, UniProt P51531).
T1 construct: expressed in transfected cells
Briefly: HiBiT-BRM cell-based degradation assay (Nano-Glo HiBiT Lytic Detection, 24 h). Particulars: stable HeLa cell line expressing HiBiT-BRM, top dose 30 μM. As to the method:
(§1) Procedure: A stable HeLa cell line expressing HiBiT-BRM was generated. On day 0, 5000 cells were seeded in 40 μL of media into each well of 384-well cell culture plates. On day 1, cells were treated with 120 nL DMSO or 120 nL of 3-fold serially DMSO-diluted compounds (10 points in duplicate with 30 μM as final top dose). Subsequently plates were incubated for 24 h in a standard tissue culture incubator and equilibrated at room temperature for 15 minutes. Nano-Glo HiBiT Lytic Detection System (Promega N3050) reagent was freshly prepared and 20 ul was added to each well. Upon addition of this LgBit-containing reagent, the HiBiT and LgBiT proteins associate to form the luminescent NanoBiT luciferase. The plates were shaken for 10 minutes at room temperature and the bioluminescence read using an EnVision plate reader (PerkinElmer).
(§2) The degradation % was calculated using the following formula: % degradation=100%−100%×(Lumsample−LumLC)/(LumHC−LumLC). DMSO treated cells are employed as High Control (HC) and 2 μM of a known BRM/BRG1 degrader standard treated cells are employed as Low Control (LC).
(HiBiT is a short tag that completes a luciferase, so light tracks the accessible tagged protein.)

The target of test [2] is T2, HiBit-BRG1 fusion protein (Homo sapiens, UniProt P51532).
T2 construct: expressed in transfected cells
T2 sequence (P51532 whole entry, the tested form may be a part): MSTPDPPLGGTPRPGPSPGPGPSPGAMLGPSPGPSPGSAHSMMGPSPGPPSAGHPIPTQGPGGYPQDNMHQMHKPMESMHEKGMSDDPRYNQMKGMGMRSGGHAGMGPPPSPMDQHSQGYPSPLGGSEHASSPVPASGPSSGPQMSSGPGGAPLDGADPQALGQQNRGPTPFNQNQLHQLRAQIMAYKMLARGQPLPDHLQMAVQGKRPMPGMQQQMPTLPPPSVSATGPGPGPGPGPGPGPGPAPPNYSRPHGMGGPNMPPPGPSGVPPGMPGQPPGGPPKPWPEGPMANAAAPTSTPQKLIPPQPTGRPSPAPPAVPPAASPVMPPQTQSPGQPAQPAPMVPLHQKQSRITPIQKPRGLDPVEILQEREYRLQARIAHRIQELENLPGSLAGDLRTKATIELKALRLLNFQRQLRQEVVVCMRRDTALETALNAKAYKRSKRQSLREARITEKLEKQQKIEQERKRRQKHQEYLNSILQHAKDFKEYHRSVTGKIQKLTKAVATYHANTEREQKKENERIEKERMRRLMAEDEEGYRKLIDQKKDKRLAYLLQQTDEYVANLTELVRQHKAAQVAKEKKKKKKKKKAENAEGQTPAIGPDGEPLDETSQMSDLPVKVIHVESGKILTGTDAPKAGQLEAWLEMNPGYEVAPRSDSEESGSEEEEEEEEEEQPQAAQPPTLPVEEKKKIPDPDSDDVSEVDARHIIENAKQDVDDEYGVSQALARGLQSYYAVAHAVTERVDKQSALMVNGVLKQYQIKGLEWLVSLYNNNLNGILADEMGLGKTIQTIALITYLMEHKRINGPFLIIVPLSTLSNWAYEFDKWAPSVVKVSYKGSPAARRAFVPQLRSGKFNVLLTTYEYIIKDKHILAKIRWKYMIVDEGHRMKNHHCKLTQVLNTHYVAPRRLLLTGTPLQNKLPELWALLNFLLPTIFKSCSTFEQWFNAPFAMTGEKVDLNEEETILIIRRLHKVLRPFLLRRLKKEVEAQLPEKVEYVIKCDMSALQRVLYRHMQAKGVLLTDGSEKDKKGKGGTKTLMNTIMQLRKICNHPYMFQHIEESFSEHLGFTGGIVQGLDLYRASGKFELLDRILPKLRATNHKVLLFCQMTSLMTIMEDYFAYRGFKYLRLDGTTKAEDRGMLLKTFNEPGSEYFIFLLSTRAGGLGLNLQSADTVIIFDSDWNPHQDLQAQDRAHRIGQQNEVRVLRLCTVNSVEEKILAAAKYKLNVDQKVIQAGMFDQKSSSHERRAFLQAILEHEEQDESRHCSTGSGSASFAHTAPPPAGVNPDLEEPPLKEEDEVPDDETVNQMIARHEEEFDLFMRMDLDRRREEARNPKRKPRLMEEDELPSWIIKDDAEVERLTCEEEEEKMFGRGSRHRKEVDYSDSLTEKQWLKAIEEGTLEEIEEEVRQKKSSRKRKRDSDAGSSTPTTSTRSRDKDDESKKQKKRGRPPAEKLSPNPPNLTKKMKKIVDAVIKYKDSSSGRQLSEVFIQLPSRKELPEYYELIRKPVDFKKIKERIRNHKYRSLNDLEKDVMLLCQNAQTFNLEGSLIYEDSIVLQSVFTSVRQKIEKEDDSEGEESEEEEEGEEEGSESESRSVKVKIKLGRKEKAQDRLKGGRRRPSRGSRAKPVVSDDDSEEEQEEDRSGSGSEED
The experiment in a line: HiBiT-BRG1 cell-based degradation assay (Nano-Glo HiBiT Lytic Detection, 24 h). Particulars: stable HeLa cell line expressing HiBit-BRG1 and LgBit, top dose 30 μM, read-out: BRG1 HiBit Degradation Maximum (%). As to the method:
as §1
For measurement of BRG1 degradation, a stable HeLa cell line expressing HiBit-BRG1 and LgBit was generated. The same protocol as above was then followed.
as §2

T1 sequence (P51531 whole entry, the tested form may be a part): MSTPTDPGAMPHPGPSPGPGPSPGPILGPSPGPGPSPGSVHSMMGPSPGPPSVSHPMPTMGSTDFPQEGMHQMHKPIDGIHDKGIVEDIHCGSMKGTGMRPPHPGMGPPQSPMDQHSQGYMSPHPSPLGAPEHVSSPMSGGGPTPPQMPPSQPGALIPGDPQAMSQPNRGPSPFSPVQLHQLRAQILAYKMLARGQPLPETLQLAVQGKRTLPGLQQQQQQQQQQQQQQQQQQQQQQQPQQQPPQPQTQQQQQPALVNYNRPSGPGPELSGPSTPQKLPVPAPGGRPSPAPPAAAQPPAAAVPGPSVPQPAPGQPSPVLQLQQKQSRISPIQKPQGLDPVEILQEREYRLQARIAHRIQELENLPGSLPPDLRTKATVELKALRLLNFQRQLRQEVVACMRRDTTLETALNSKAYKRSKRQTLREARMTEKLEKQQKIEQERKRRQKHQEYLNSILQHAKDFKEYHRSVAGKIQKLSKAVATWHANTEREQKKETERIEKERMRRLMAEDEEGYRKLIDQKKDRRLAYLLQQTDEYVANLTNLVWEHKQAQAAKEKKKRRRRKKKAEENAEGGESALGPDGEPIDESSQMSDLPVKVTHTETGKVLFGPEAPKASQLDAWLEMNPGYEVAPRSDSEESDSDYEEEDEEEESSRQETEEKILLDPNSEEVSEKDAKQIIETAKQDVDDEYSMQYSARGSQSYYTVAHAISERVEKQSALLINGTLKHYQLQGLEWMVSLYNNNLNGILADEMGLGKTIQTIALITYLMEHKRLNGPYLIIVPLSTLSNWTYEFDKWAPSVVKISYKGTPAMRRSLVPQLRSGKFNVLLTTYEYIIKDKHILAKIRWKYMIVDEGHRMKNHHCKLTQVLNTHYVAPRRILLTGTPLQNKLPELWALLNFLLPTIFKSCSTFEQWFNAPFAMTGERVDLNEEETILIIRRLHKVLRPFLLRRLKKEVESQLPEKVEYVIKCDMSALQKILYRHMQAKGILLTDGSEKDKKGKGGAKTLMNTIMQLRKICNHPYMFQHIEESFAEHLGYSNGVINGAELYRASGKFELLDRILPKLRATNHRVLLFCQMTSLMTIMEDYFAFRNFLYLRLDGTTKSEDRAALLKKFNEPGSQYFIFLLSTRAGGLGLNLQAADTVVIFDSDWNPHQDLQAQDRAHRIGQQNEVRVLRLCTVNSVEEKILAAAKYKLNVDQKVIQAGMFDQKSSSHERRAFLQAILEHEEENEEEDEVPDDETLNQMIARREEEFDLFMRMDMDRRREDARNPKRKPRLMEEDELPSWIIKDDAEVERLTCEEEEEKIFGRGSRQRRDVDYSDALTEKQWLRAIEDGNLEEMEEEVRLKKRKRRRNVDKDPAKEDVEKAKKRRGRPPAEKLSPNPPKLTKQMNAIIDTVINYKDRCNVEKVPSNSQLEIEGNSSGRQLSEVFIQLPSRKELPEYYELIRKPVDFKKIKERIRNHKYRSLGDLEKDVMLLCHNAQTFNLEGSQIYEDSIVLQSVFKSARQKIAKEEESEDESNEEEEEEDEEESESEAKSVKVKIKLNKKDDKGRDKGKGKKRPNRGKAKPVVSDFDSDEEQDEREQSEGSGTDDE

Consider `Nc1nnc(-c2ccccc2O)cc1OCC12CC(C(=O)NCCOCCOCCNC(=O)COc3cccc4c3C(=O)N(C3CCC(=O)NC3=O)C4=O)(C1)C2` (stereo not drawn) [Compound 90, 3-(((3-amino-6-(2-hydroxyphenyl)pyridazin-4-yl)oxy)methyl)-N-(2-(2-(2-(2-((2-(2,6-dioxopiperidin-3-yl)-1,3-dioxoisoindolin-4-yl)oxy)acetamido)ethoxy)ethoxy)ethyl)bicyclo[1.1.1]pentane-1-carboxamide], for which, in test [1], the “BRM HiBit Degradation Maximum (%)” value was “C (“C” indicates maximum degradation < 50%)”. Further, in test [2], the Dmax is less than 50%.

For the compound `Cc1ncsc1-c1ccc(CNC(=O)[C@@H]2C[C@@H](O)CN2C(=O)[C@@H](NC(=O)CCCCCCCCCCC(=O)NC23CC(CCOc4cc(-c5ccccc5O)nnc4N)(C2)C3)C(C)(C)C)cc1` [Compound 47, N1-(3-(2-((3-amino-6-(2-hydroxyphenyl)pyridazin-4-yl)oxy)ethyl)bicyclo[1.1.1]pentan-1-yl)-N12-((S)-1-((2S,4R)-4-hydroxy-2-((4-(4-methylthiazol-5-yl)benzyl)carbamoyl)pyrrolidin-1-yl)-3,3-dimethyl-1-oxobutan-2-yl)dodecanediamide], the “BRM HiBit Degradation Maximum (%)” value in test [1] is reported as “B (“B” indicates maximum degradation ≥ 50%)”. In addition, the Dmax in test [2] was less than 50%.

For the compound `Nc1nnc(-c2ccccc2O)cc1OCC12CC(C(=O)NCCOCCOCCOCCNC(=O)COc3cccc4c3C(=O)N(C3CCC(=O)NC3=O)C4=O)(C1)C2` (stereo not drawn) [Compound 92, 3-(((3-amino-6-(2-hydroxyphenyl)pyridazin-4-yl)oxy)methyl)-N-(1-((2-(2,6-dioxopiperidin-3-yl)-1,3-dioxoisoindolin-4-yl)oxy)-2-oxo-6,9,12-trioxa-3-azatetradecan-14-yl)bicyclo[1.1.1]pentane-1-carboxamide], the “BRM HiBit Degradation Maximum (%)” value in test [1] is given as “C (“C” indicates maximum degradation < 50%)”. The Dmax in test [2] was less than 50%.

Turning to `Cc1ncsc1-c1ccc(CNC(=O)[C@@H]2C[C@@H](O)CN2C(=O)[C@@H](NC(=O)CCCCCCCCCC(=O)NC23CC(CCOc4cc(-c5ccccc5O)nnc4N)(C2)C3)C(C)(C)C)cc1` [Compound 48, N1-(3-(2-((3-amino-6-(2-hydroxyphenyl)pyridazin-4-yl)oxy)ethyl)bicyclo[1.1.1]pentan-1-yl)-N11-((S)-1-((2S,4R)-4-hydroxy-2-((4-(4-methylthiazol-5-yl)benzyl)carbamoyl)pyrrolidin-1-yl)-3,3-dimethyl-1-oxobutan-2-yl)undecanediamide; formic acid], in test [1], the “BRM HiBit Degradation Maximum (%)” value was “B (“B” indicates maximum degradation ≥ 50%)”. In addition, the Dmax in test [2] is greater than 50%.

Regarding `Cc1ncsc1-c1ccc(CNC(=O)[C@@H]2C[C@@H](O)CN2C(=O)[C@@H](NC(=O)CCCCCCCCCCCCCCC(=O)NCC23CC(COc4cc(-c5ccccc5O)nnc4N)(C2)C3)C(C)(C)C)cc1` [Compound 41, N1-((3-(((3-amino-6-(2-hydroxyphenyl)pyridazin-4-yl)oxy)methyl)bicyclo[1.1.1]pentan-1-yl)methyl)-N16-((S)-1-((2S,4R)-4-hydroxy-2-((4-(4-methylthiazol-5-yl)benzyl)carbamoyl)pyrrolidin-1-yl)-3,3-dimethyl-1-oxobutan-2-yl)hexadecanediamide], the “BRM HiBit Degradation Maximum (%)” value in test [1] is “B (“B” indicates maximum degradation ≥ 50%)”. Moreover, the Dmax in test [2] was less than 50%.

Take `Nc1nnc(-c2ccccc2O)cc1OCC12CC(C(=O)NCCOc3ccc4c(c3)C(=O)N(C3CCC(=O)NC3=O)C4=O)(C1)C2` (stereo not drawn) [Compound 55, 3-(((3-amino-6-(2-hydroxyphenyl)pyridazin-4-yl)oxy)methyl)-N-(2-((2-(2,6-dioxopiperidin-3-yl)-1,3-dioxoisoindolin-5-yl)oxy)ethyl)bicyclo[1.1.1]pentane-1-carboxamide]: the “BRM HiBit Degradation Maximum (%)” value in test [1] is “C (“C” indicates maximum degradation < 50%)”. In addition, the Dmax in test [2] is less than 50%.

As for `Nc1nnc(-c2ccccc2O)cc1OCC12CC(C(=O)NCCOc3cccc(OCCNc4cccc5c4C(=O)N(C4CCC(=O)NC4=O)C5=O)c3)(C1)C2` (stereo not drawn) [Compound 83, 3-(((3-amino-6-(2-hydroxyphenyl)pyridazin-4-yl)oxy)methyl)-N-(2-(3-(2-((2-(2,6-dioxopiperidin-3-yl)-1,3-dioxoisoindolin-4-yl)amino)ethoxy)phenoxy)ethyl)bicyclo[1.1.1]pentane-1-carboxamide], in test [1], the “BRM HiBit Degradation Maximum (%)” value is “C (“C” indicates maximum degradation < 50%)”. The Dmax in test [2] is less than 50%.

In the case of `Cc1ncsc1-c1ccc(CNC(=O)[C@@H]2C[C@@H](O)CN2C(=O)[C@@H](NC(=O)C23CC(COc4cc(-c5ccccc5O)nnc4N)(C2)C3)C(C)(C)C)cc1` [Compound 105, (2S,4R)-1-((S)-2-(3-(((3-amino-6-(2-hydroxyphenyl)pyridazin-4-yl)oxy)methyl)bicyclo[1.1.1]pentane-1-carboxamido)-3,3-dimethylbutanoyl)-4-hydroxy-N-(4-(4-methylthiazol-5-yl)benzyl)pyrrolidine-2-carboxamide], in test [1], the “BRM HiBit Degradation Maximum (%)” value was “C (“C” indicates maximum degradation < 50%)”. Besides, the Dmax in test [2] is less than 50%.

For `Nc1nnc(-c2ccccc2O)cc1OCC12CC(C(=O)N3CCN(CCCOCC#Cc4ccc5c(c4)C(=O)N(C4CCC(=O)NC4=O)C5=O)CC3)(C1)C2` (stereo not drawn) [Compound 52, 5-(3-(3-(4-(3-(((3-amino-6-(2-hydroxyphenyl)pyridazin-4-yl)oxy)methyl)bicyclo[1.1.1]pentane-1-carbonyl)piperazin-1-yl)propoxy)prop-1-yn-1-yl)-2-(2,6-dioxopiperidin-3-yl)isoindoline-1,3-dione], the “BRM HiBit Degradation Maximum (%)” value in test [1] is listed as “C (“C” indicates maximum degradation < 50%)”. For the same compound, the Dmax in test [2] is less than 50%.

For `Cc1nc2cccc(NCCOCCOCCNC(=O)C34CC(COc5cc(-c6ccccc6O)nnc5N)(C3)C4)c2c(=O)n1C1CCC(=O)NC1=O` (stereo not drawn) [Compound 61, 3-(((3-amino-6-(2-hydroxyphenyl)pyridazin-4-yl)oxy)methyl)-N-(2-(2-(2-((3-(2,6-dioxopiperidin-3-yl)-2-methyl-4-oxo-3,4-dihydroquinazolin-5-yl)amino)ethoxy)ethoxy)ethyl)bicyclo[1.1.1]pentane-1-carboxamide], in test [1], the “BRM HiBit Degradation Maximum (%)” value is “C (“C” indicates maximum degradation < 50%)”. Further, the Dmax in test [2] was less than 50%.

Consider `Nc1nnc(-c2ccccc2O)cc1OCCC12CC(NC(=O)CCCOc3cccc4c3C(=O)N(C3CCC(=O)NC3=O)C4=O)(C1)C2` (stereo not drawn) [Compound 18, N-(3-(2-((3-amino-6-(2-hydroxyphenyl)pyridazin-4-yl)oxy)ethyl)bicyclo[1.1.1]pentan-1-yl)-4-((2-(2,6-dioxopiperidin-3-yl)-1,3-dioxoisoindolin-4-yl)oxy)butanamide], for which the “BRM HiBit Degradation Maximum (%)” value in test [1] is on record as “C (“C” indicates maximum degradation < 50%)”. For the same compound, the Dmax in test [2] is less than 50%.

Consider `Nc1nnc(-c2ccccc2O)cc1OCC12CC(CNC(=O)CCOCCOCCNc3cccc4c3C(=O)N(C3CCC(=O)NC3=O)C4=O)(C1)C2` (stereo not drawn) [Compound 11, N-[[3-([[3-amino-6-(2-hydroxyphenyl)pyridazin-4-yl]oxy]methyl)bicyclo[1.1.1]pentan-1-yl]methyl]-3-[2-(2-[[2-(2,6-dioxopiperidin-3-yl)-1,3-dioxoisoindol-4-yl]amino]ethoxy)ethoxy]propanamide], for which the “BRM HiBit Degradation Maximum (%)” value in test [1] is “C (“C” indicates maximum degradation < 50%)”. The Dmax in test [2] was less than 50%.

For the compound `Nc1nnc(-c2ccccc2O)cc1OCCC12CC(NC(=O)CCCCOc3cccc4c3C(=O)N(C3CCC(=O)NC3=O)C4=O)(C1)C2` (stereo not drawn) [Compound 19, N-(3-(2-((3-amino-6-(2-hydroxyphenyl)pyridazin-4-yl)oxy)ethyl)bicyclo[1.1.1]pentan-1-yl)-5-((2-(2,6-dioxopiperidin-3-yl)-1,3-dioxoisoindolin-4-yl)oxy)pentanamide], the “BRM HiBit Degradation Maximum (%)” value in test [1] is reported as “C (“C” indicates maximum degradation < 50%)”. Further, the Dmax in test [2] is less than 50%.

`Nc1nnc(-c2ccccc2O)cc1OCCC12CC(NC(=O)CCCCCCCCNc3ccc4c(c3)C(=O)N(C3CCC(=O)NC3=O)C4=O)(C1)C2` (stereo not drawn) [Compound 25, N-[3-(2-[[3-amino-6-(2-hydroxyphenyl)pyridazin-4-yl]oxy]ethyl)bicyclo[1.1.1]pentan-1-yl]-9-[[2-(2,6-dioxopiperidin-3-yl)-1,3-dioxoisoindol-5-yl]amino]nonanamide]: in test [1], the “BRM HiBit Degradation Maximum (%)” value was “C (“C” indicates maximum degradation < 50%)”. Also, the Dmax in test [2] is less than 50%.

Consider `Cc1ncsc1-c1ccc(CNC(=O)[C@@H]2C[C@@H](O)CN2C(=O)[C@@H](NC(=O)CCCCCCCCCCC(=O)NCC23CC(COc4cc(-c5ccccc5O)nnc4N)(C2)C3)C(C)(C)C)cc1` [Compound 38, N1-((3-(((3-amino-6-(2-hydroxyphenyl)pyridazin-4-yl)oxy)methyl)bicyclo[1.1.1]pentan-1-yl)methyl)-N12-((S)-1-((2S,4R)-4-hydroxy-2-((4-(4-methylthiazol-5-yl)benzyl)carbamoyl)pyrrolidin-1-yl)-3,3-dimethyl-1-oxobutan-2-yl)dodecanediamide], for which, in test [1], the “BRM HiBit Degradation Maximum (%)” value is “B (“B” indicates maximum degradation ≥ 50%)”. Also, in test [2], the Dmax was less than 50%.
